The source of these data is patent US10138251B2, “Spiro[3H-indole-3,2′-pyrrolidin]-2(1H)-one compounds and derivatives as MDM2-P53 inhibitors” (Boehringer Ingelheim International GmbH, priority 2014, dated 2018).

The subject of test [1] is human prostate tumor xenograft models harboring p53 wild-type. To be noted: Tovar et al. 2013; cited from earlier work.
The test system of test [2] is solid tumor xenograft models. To be noted: Carol et al. 2013; cited from earlier work.
The subject of test [3] is acute lymphoblastic leukemia (ALL) xenograft models with mixed-lineage leukemia (MLL) rearrangement. The following applies: Carol et al. 2013; cited from earlier work.
Test [4] relates to human acute myeloid leukemia (AML) xenograft models harboring p53 wild-type. To be noted: Tovar et al. 2013; cited from earlier work.
A further test concerns the target T1, MDM2 (Homo sapiens, UniProt Q00987).
T1 construct: 20 nM GST-MDM2 protein (aa 23-117)
As to the kind of experiment: Mdm2-p53 Inhibition AlphaScreen. The class given is binding. To be noted: 20 nM GST-MDM2 protein (aa 23-117), 20 nM biotinylated p53 wt peptide. On the procedure:
Mdm2-p53 Inhibition AlphaScreen
15 μL of compound in 20% DMSO (serial pre-dilutions of compound are done in 100% DMSO) is pipetted to the wells of a white OptiPlate-96 (PerkinElmer). A mix consisting of 20 nM GST-MDM2 protein (aa 23-117) and 20 nM biotinylated p53 wt peptide (encompassing aa 16-27 of wt human p53, amino acid sequence QETFSDLWKLLP-Ttds-Lys-Biotin, molecular weight 2132.56 g/mol) is prepared in assay buffer (50 mM Tris/HCl pH 7.2; 120 mM NaCl; 0.1% bovine serum albumin (BSA); 5 mM dithiothreitol (DTT); 1 mM ethylenediaminetetraacetic acid (EDTA); 0.01% Tween 20). 30 μL of the mix is added to the compound dilutions and incubated for 15 min at rt while gently shaking the plate at 300 rounds per minute (rpm). Subsequently, 15 μL of premixed AlphaLISA Glutathione Acceptor Beads and AlphaScreen Streptavidin Donor Beads from PerkinElmer (in assay buffer at a concentration of 10 μg/mL each) are added and the samples are incubated for 30 min at rt in the dark (shaking 300 rpm). Afterwards, the signal is measured in a PerkinElmer Envision HTS Multilabel Reader using the AlphaScreen protocol from PerkinElmer.
Each plate contains negative controls where biotinylated p53-peptide and GST-MDM2 are left out and replaced by assay buffer. Negative control values are entered as low basis value when using the software GraphPad Prism for calculations. Furthermore, a positive control (5% DMSO instead of test compound; with protein/peptide mix) is pipetted. Determination of IC50 values are carried out using GraphPad Prism 3.03 software (or updates thereof).
For orientation: Alpha assays give light when donor and acceptor beads are brought close together.

The term IC50 denotes the concentration at which inhibition is half-maximal. A low value points to higher potency.

T1 sequence (Q00987 23-117): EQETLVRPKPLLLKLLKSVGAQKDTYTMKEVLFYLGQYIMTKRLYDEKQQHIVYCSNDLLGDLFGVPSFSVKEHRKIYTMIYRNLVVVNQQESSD

Consider `CCOc1cc(C(C)(C)C)ccc1C1=N[C@@](C)(c2ccc(Cl)cc2)[C@@](C)(c2ccc(Cl)cc2)N1C(=O)N1CCN(CCCS(C)(=O)=O)CC1` [RG7112], for which the “antiproliferative and proapoptotic activity” value in test [1] is “antiproliferative and proapoptotic activity”; in test [4], “antiproliferative and proapoptotic activity”. The tumor growth inhibition result in test [2] was “induced tumor growth inhibition”. Further, the efficacy entry in test [3] is “particularly efficacious”.

With `CCOc1cccc(CN2[C@H]3CCN(CC4CC4C(N)=O)[C@H]3[C@H](c3cccc(Cl)c3F)[C@]23C(=O)Nc2cc(Cl)ccc23)c1` (some centres unmarked) [Compound I-74], the IC50 at MDM2 is 21 nM.

As to `CCOc1cccc(CN2[C@H]3CCN(CC(=O)O)[C@H]3[C@H](c3cccc(Cl)c3F)[C@]23C(=O)Nc2cc(Cl)ccc23)c1` [Compound I-70], half-maximal inhibition at MDM2 (IC50) required 2 nM.

At MDM2, `CC(=O)N1CC[C@H]2C1[C@H](c1ccnc(Cl)c1F)[C@]1(C(=O)Nc3cc(Cl)ccc31)N2CC1CC1` (some centres unmarked) [Compound I-89] came in with an IC50 of 34 nM.

For `O=C(O)CN1CC[C@H]2[C@@H]1[C@H](c1cccc(Cl)c1)[C@]1(C(=O)Nc3cc(Cl)ccc31)N2CC1CC1` [Compound I-60], the IC50 at MDM2 was 85 nM.
